{"source": "patent US11401303B2", "about": "“Synthetic peptide BRAP and application in preparation of anti-inflammatory drug for COVID-19 thereof” (TAIAN CITY QIHANG BIOTECHNOLOGY CO., priority 2020, dated 2022)", "key": {"[1]": {"tested_on": "OVA-induced allergic rhinitis", "experiment": "Rat allergic nasal inflammation (OVA-induced allergic rhinitis), intranasal administration", "format": "in vivo, SD rat", "conditions": "all dose groups of the peptide; bilateral nasal cavities 50 μL/side, 4 weeks, continued OVA provocation", "protocol": "SD rat modeling: two stages of intraperitoneal injection for sensitization and intranasal dripping for stimulation. Ovalbumin was injected intraperitoneally, and 1 mg ovalbumin (V-class Sigma, USA) was dissolved in 1 ml normal saline, and 30 mg of aluminum hydroxide was added as an immunologic adjuvant. Each rat was intraperitoneally injected 1 ml ovalbumin suspension prepared above with 1 ml/time every other day and for 7 times in total; and stimulated intranasally with ovalbumin on the 15th day; 20 mg ovalbumin (V-class Sigma, USA) were dissolved in 1 ml normal saline to be prepared into a 2% solution; and the 2% ovalbumin solution was used for stimulation by nasal dripping; and 50 ul nasal drips were administered in each of the nasal cavities of each rat for 7 consecutive days.\nBlank control group: 30 mg of aluminum hydroxide+1 ml of normal saline were mixed evenly, and then injected intraperitoneally; and the method was the same as the above.\nNormal saline was dripped into nasal cavities on the 15th day.\nAfter the final nasal dripping was performed, each rat was observed and evaluated according to a scoring table: Sneezing, nose scratching, gasping and nasal secretions\n1. Administration way: a drug was administered with a micro-sampling gun, bilateral nasal cavities of a rat were administered with 50 μL/side, after being administered for 20 min, a 2% ovalbumin solution was administered to bilateral nasal cavities of the rat; 50 μL/side nasal dripping was administered for provocation; the above treatment was performed for 4 consecutive weeks to observe the pharmacodynamic effect.\nHigh-dose synthetic peptide brap: a synthetic peptide brap freeze-dried powder (5 mg/bottle) was taken, and 1.63 ml sterile saline solution was added for dissolving;\nmedium-dose synthetic peptide brap: a synthetic peptide brap freeze-dried powder (5 mg/bottle) was taken, and 4.89 ml sterile saline solution was added for dissolving;\nlow-dose synthetic peptide brap: a synthetic peptide brap freeze-dried powder (5 mg/bottle) was taken, and 14.67 ml sterile saline solution was added for dissolving;"}, "[2]": {"tested_on": "LPS-induced acute lung injury", "experiment": "LPS-induced acute lung injury in mice, HE pathological examination of lung tissues", "format": "in vivo, Balb/C mice", "conditions": "16 mg/kgBW via tail vein once/day; LPS 5 mg/kgBW i.p.", "protocol": "1. Grade-SPF male Balb/C mice, body weight: 20±2 g, and n=48\n3. Grouping and treatment: mice were randomly divided into 8 groups (A-H), 6 pcs./group;\n3-1: 3 different treatments were given for 3 consecutive days respectively before modeling:\nA. normal control group: normal saline was injected via the tail vein for once/day;\nB. LPS model group: normal saline was injected via the tail vein for once/day;\nC. model sp2 administration group: sp2 (16 mg/kgBW) was injected via the tail vein for once/day;\nD. model high-dose brap administration group: brap (16 mg/kgBW) was injected via the tail vein for once/day;\nE. model medium-dose brap administration group: brap (8 mg/kgBW) was injected via the tail vein for once/day;\nF. model low-dose brap administration group: brap (4 mg/kgBW) was injected via the tail vein for once/day;\nG. model brap intranasal administration group: brap (3 mM) was administered nasal administration on both sides, 15 μl/each side; once a day;\nH. model dexamethasone administration group (a positive control group): dexamethasone, DEX, 5 mg/kg was injected intraperitoneally for once a day.\nAnimals from groups A-H were continuously administered the above treatments for 30 min respectively, then group A was intraperitoneally injected isopyknic normal saline, and other groups were intraperitoneally injected LPS 5 mg/kgBW.\n1. Tissue section and extending\n2. Tissues were dewaxed and hydrated.\n3. Tissues were dyed with a hematoxylin stain for 5-20 min (adjusted according to different tissues and experimental requirements), and washed by tap water.\n4. Then, tissues were differentiated by a differentiation solution for 30 s.\n5. Tissues were soaked by tap water for 15 min or warm water (about 50° C.) for 5 min.\n6. Tissues were put in an Eosin stain for 2 min (adjusted according to different tissues and experimental requirements), and washed by tap water.\n7. Then, the tissues were soaked by tap water for 5 min.\n8. Dehydration by gradient alcohol: Tissues were dehydrated by 95%, 100% I, and 100% II for 1 min each;\n9. Transparency by xylene: tissues were subjected to xylene I and II for 10 min.\n10. Neutral balsam mounting.\n11. Then, it was put and dried in an oven at 60° C., and observed under microscope."}}, "data": [{"substance": "sp2: control synthetic peptide with an amino acid sequence as shown in SEQ ID No: 2 (RVLNGPEEEAAAPAE) [reference compound]", "values": [{"measurement": "Scoring change before and after treatment", "setting": "[1]", "value": "increases"}, {"measurement": "Lung tissue pathology (HE)", "setting": "[2]", "value": "inflammatory cell infiltration is obvious"}]}]}
